Measurements as given in PubChem BioAssay (NCI).
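Five compound concentrations were applied to cells in 96-well plates for 48 hours; endpoints were derived by simple linear interpolation of the resulting dose-response curve. TGI denotes the concentration required for complete inhibition of growth.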

Assays:
Assay in all cases: inhibition of tumour cell growth, NCI panel, 48 h
[1] = system: NCI-H226 lung
[2] = system: HCT-15 colon
[3] = system: UO-31 renal
[4] = system: SN12C renal
[5] = system: SF-295 CNS
[6] = system: HOP-62 NSCLC
[7] = system: BT-549 breast
[8] = system: MDA-N
[9] = system: SK-OV-3 ovarian
[10] = system: SR leukemia
[11] = system: PC-3 prostate
[12] = system: IGROV1 ovarian
[13] = system: HCC-2998 colon
[14] = system: OVCAR-8 ovarian
[15] = system: SF-539 CNS
[16] = system: UACC-257 melanoma
[17] = system: HCT-116 colon
[18] = system: RXF 393 renal
[19] = system: HT29 colon
[20] = system: SNB-75 CNS
[21] = system: SW-620 colon
[22] = system: M14 melanoma
[23] = system: MDA-MB-435
[24] = system: A549 NSCLC
[25] = system: 786-0 renal
[26] = system: SK-MEL-28 melanoma
[27] = system: COLO 205 colon
[28] = system: SNB-19 CNS
[29] = system: SK-MEL-5 melanoma
[30] = system: RPMI-8226 leukemia
[31] = system: U251 CNS
[32] = system: UACC-62 melanoma
[33] = system: MDA-MB-231 breast
[34] = system: OVCAR-3 ovarian
[35] = system: NCI/ADR-RES ovarian
[36] = system: NCI-H460 lung
[37] = system: K-562 leukemia
[38] = system: ACHN renal
[39] = system: MCF7 breast
[40] = system: NCI-H23 lung
[41] = system: EKVX NSCLC
[42] = system: MOLT-4 leukemia
[43] = system: HS 578T breast
[44] = system: SF-268 CNS
[45] = system: KM12 colon
[46] = system: DU-145 prostate
[47] = system: OVCAR-5 ovarian
[48] = system: CAKI-1 renal
[49] = system: T-47D breast
[50] = system: MALME-3M melanoma
[51] = system: SK-MEL-2 melanoma
[52] = system: TK-10 renal
[53] = system: NCI-H522 lung
[54] = system: CCRF-CEM leukemia
[55] = system: A498 renal
[56] = system: OVCAR-4 ovarian
[57] = system: HOP-92 NSCLC
[58] = system: LOX IMVI melanoma
[59] = system: HL-60(TB) leukemia

Compound: CC(C)(C)OC(=O)NC(Cc1ccccc1)OCc1ccccc1 (configuration not stated)
- TGI [1]: 34.4 µM
- TGI [2]: 36.1 µM
- TGI [3]: 35.6 µM
- TGI [4]: 50.4 µM
- TGI [5]: 31.2 µM
- TGI [6]: 37.8 µM
- TGI [7]: 55.2 µM
- TGI [8]: 38.1 µM
- TGI [9]: 31.4 µM
- TGI [10]: > 100 µM
- TGI [11]: 26.7 µM
- TGI [12]: > 10 µM
- TGI [13]: 43.7 µM
- TGI [14]: 39.9 µM
- TGI [15]: 39 µM
- TGI [16]: > 10 µM
- TGI [17]: 31.8 µM
- TGI [18]: 35.1 µM
- TGI [19]: 44.5 µM
- TGI [20]: 25.4 µM
- TGI [21]: 34.2 µM
- TGI [22]: 39.7 µM
- TGI [23]: 42.7 µM
- TGI [24]: 32.8 µM
- TGI [25]: 31 µM
- TGI [26]: 33.1 µM
- TGI [27]: > 100 µM
- TGI [28]: 37.7 µM
- TGI [29]: 31 µM
- TGI [30]: 72.6 µM
- TGI [31]: > 10 µM
- TGI [32]: 28.7 µM
- TGI [33]: 30.2 µM
- TGI [34]: 49.3 µM
- TGI [35]: 70.7 µM
- TGI [36]: 44.7 µM
- TGI [37]: 66.2 µM
- TGI [38]: 35 µM
- TGI [39]: 35.9 µM
- TGI [40]: 46.3 µM
- TGI [41]: 35.9 µM
- TGI [42]: 77.6 µM
- TGI [43]: 51.5 µM
- TGI [44]: 36.2 µM
- TGI [45]: 37.4 µM
- TGI [46]: 39.6 µM
- TGI [47]: 58.2 µM
- TGI [48]: 37.8 µM
- TGI [49]: 39.8 µM
- TGI [50]: 44.2 µM
- TGI [51]: 74.7 µM
- TGI [52]: 41.2 µM
- TGI [53]: 26.9 µM

Compound: Cc1n[nH]c(=O)n1N1C(=O)CCCC1=O
- TGI [1]: > 100 µM
- TGI [4]: > 100 µM
- TGI [5]: > 100 µM
- TGI [6]: > 100 µM
- TGI [7]: > 100 µM
- TGI [8]: > 100 µM
- TGI [9]: > 100 µM
- TGI [11]: > 100 µM
- TGI [12]: > 100 µM
- TGI [13]: > 100 µM
- TGI [14]: > 100 µM
- TGI [15]: > 100 µM
- TGI [16]: > 100 µM
- TGI [17]: > 100 µM
- TGI [18]: > 100 µM
- TGI [19]: > 100 µM
- TGI [20]: > 100 µM
- TGI [22]: > 100 µM
- TGI [23]: > 100 µM
- TGI [24]: > 100 µM
- TGI [25]: > 100 µM
- TGI [27]: > 100 µM
- TGI [29]: > 100 µM
- TGI [31]: > 100 µM
- TGI [32]: > 100 µM
- TGI [33]: > 100 µM
- TGI [34]: > 100 µM
- TGI [35]: > 100 µM
- TGI [37]: > 100 µM
- TGI [54]: > 100 µM
- TGI [39]: > 100 µM
- TGI [40]: > 100 µM
- TGI [41]: > 100 µM
- TGI [42]: 62.8 µM
- TGI [43]: > 100 µM
- TGI [44]: > 100 µM
- TGI [46]: > 100 µM
- TGI [47]: > 100 µM
- TGI [48]: > 100 µM
- TGI [49]: > 100 µM
- TGI [50]: > 100 µM
- TGI [51]: > 100 µM
- TGI [52]: > 100 µM
- TGI [55]: > 100 µM
- TGI [53]: > 100 µM

Compound: NC(N)=NCC[C@H](NC(=O)OCCCCCn1ccc(=O)[nH]c1=O)C(=O)O
- TGI [56]: > 100 µM
- TGI [1]: > 100 µM
- TGI [2]: > 100 µM
- TGI [3]: > 100 µM
- TGI [4]: > 100 µM
- TGI [5]: > 100 µM
- TGI [6]: > 100 µM
- TGI [7]: > 100 µM
- TGI [8]: > 100 µM
- TGI [9]: > 100 µM
- TGI [11]: > 100 µM
- TGI [13]: > 100 µM
- TGI [14]: > 100 µM
- TGI [57]: > 100 µM
- TGI [15]: > 100 µM
- TGI [16]: > 100 µM
- TGI [17]: > 100 µM
- TGI [18]: > 100 µM
- TGI [19]: > 100 µM
- TGI [20]: > 100 µM
- TGI [21]: > 100 µM
- TGI [23]: > 100 µM
- TGI [24]: > 100 µM
- TGI [25]: > 100 µM
- TGI [26]: > 100 µM
- TGI [27]: > 100 µM
- TGI [28]: > 100 µM
- TGI [29]: > 100 µM
- TGI [30]: > 100 µM
- TGI [31]: > 100 µM
- TGI [32]: > 100 µM
- TGI [33]: > 100 µM
- TGI [34]: > 100 µM
- TGI [35]: > 100 µM
- TGI [36]: > 100 µM
- TGI [37]: > 100 µM
- TGI [38]: > 100 µM
- TGI [54]: > 100 µM
- TGI [39]: > 100 µM
- TGI [40]: > 100 µM
- TGI [41]: > 100 µM
- TGI [42]: > 100 µM
- TGI [43]: > 100 µM
- TGI [44]: > 100 µM
- TGI [45]: > 100 µM
- TGI [46]: > 100 µM
- TGI [47]: > 100 µM
- TGI [58]: > 100 µM
- TGI [48]: > 100 µM
- TGI [59]: > 100 µM
- TGI [49]: > 100 µM
- TGI [50]: > 100 µM
- TGI [51]: > 100 µM
- TGI [52]: > 100 µM

Compound: O=C(NC1=C(Cl)C(=O)c2ccccc2C1=O)c1ccc(F)cc1
- TGI [56]: 20 µM
- TGI [1]: 8.37 µM
- TGI [2]: 14.8 µM
- TGI [4]: 14.5 µM
- TGI [5]: 13.8 µM
- TGI [6]: 26.8 µM
- TGI [7]: 14.7 µM
- TGI [8]: 12.9 µM
- TGI [10]: > 100 µM
- TGI [11]: 10.7 µM
- TGI [12]: 11.5 µM
- TGI [13]: 15.1 µM
- TGI [14]: 19.3 µM
- TGI [57]: 3.34 µM
- TGI [15]: 18.7 µM
- TGI [16]: 7.43 µM
- TGI [17]: 10.6 µM
- TGI [18]: 5.4 µM
- TGI [19]: 11.5 µM
- TGI [20]: 22.1 µM
- TGI [21]: 2.51 µM
- TGI [22]: 12.5 µM
- TGI [23]: 14.2 µM
- TGI [24]: > 100 µM
- TGI [25]: > 100 µM
- TGI [26]: 18.4 µM
- TGI [27]: 8.33 µM
- TGI [28]: 17.3 µM
- TGI [30]: > 100 µM
- TGI [31]: 12.2 µM
- TGI [32]: 2.85 µM
- TGI [33]: 18.9 µM
- TGI [34]: 12.3 µM
- TGI [35]: 14.8 µM
- TGI [36]: 10.6 µM
- TGI [38]: 4.85 µM
- TGI [39]: 17.1 µM
- TGI [40]: 13.7 µM
- TGI [41]: 78.9 µM
- TGI [42]: 7.13 µM
- TGI [43]: 64.7 µM
- TGI [44]: 38.9 µM
- TGI [45]: 12.5 µM
- TGI [46]: 18.3 µM
- TGI [47]: 16.5 µM
- TGI [59]: > 100 µM
- TGI [49]: 4.93 µM
- TGI [50]: 3.73 µM
- TGI [52]: 14.6 µM
- TGI [53]: 1.84 µM
